Here are results for one compound from US9415023B2, “Compositions comprising terpene compounds for treating negative sensory phenomena” (NeuroQuest Inc., priority 2008, dated 2016).

“Also recorded” adds a separate entry of the source.

Test [1] in a line: Subject-reported relief of numbness and pain after topical application (case studies). The test is classed as in vivo, human. The method, then:
(§1) A natural blend of geranium oil and other essential oils (Table 1) was also tested in a panel of human neuropathic pain sufferers, some of whom experienced negative sensory phenomena. […] The geranium oil blend or geraniol was topically applied in therapeutically effective amounts to areas of the human body affected with symptoms of negative sensory symptoms. Dosage amount depended on the size of the patient's affected areas. […] Once administered, a typical positive response was reported typically within minutes.

Test [2] in a line: Nylon filament test of sensation after topical application (case studies). The format is in vivo, human. How it is done: as §1
7, 2008 and complained of numbness on the soles of their feet. Their sensation was tested with a nylon filament and the patient could not feel the filament on the ball of either foot. Geraniol was applied to the ball of one foot. After approximately 5 minutes the feet were retested with the nylon filament. The foot that had not been treated still could not detect the touch of the filament.
They could not feel a nylon filament used to test sensation on the bottom of either foot. They had geraniol applied to the left foot and the sensation was retested after 5 minutes. […] The patient was given geraniol to use on the left foot every other day.

Test [3] relates to cortical neuron. Nature of the test: Perforated patch clamp electrophysiology of mouse brain slices. The format is cell-based. The conditions noted are these: for membrane current (current-voltage relation): geraniol vs. control. How it is done: Studies were conducted on mouse hippocampal brain slice preparations. In terms of the slice preparations, […] coronal brain slices were prepared from animals housed in a 12 hour light (ZT 0-12):12 hour dark (ZT 12-24) environment. Animals were anesthetized with isoflurane, decapitated, the brain rapidly removed and placed in ice cold, oxygenated (95% 02:5% C02), bicarbonate-buffered artificial cerebral spinal fluid (ACSF). A 1 cm^2 block of brain tissue containing the hippocampi was glued to a cutting surface and coronal slices were prepared using a Leica VT1000S microtome (Leica Microsystems). All slices were left to equilibrate for approximately one hour prior to the transfer to a recording chamber. Once transferred to the chamber, slices were continuously superfused with oxygenated ACSF at a rate of 3 ml/min @30° C. and recordings are generally made for the next 6-12 hours. Patch microelectrodes (5-8 MΩ) made from borosilicate glass (Garner Glass Co.) and filled with K^+ based internal patch solution composed of: (in mM) 120 K-acetate, 40 HEPES, 10 EGTA, 6 MgCl2, nystatin (450 μg/ml) or gramicidin B (5 μg/ml) and pluronic acid F127.
The perforated patch recording technique and will be used (Korn & Horn, 1989) and viable Hippocampal neurons were visually targeted using Infrared Differential Interference Contrast (IR-DIC) microscopy using a Leica DM LFSA scope. […] Recordings were made from 3 different patch rigs equipped with either […] patch clamp amplifiers interfaced via a Digidata 1322A to a PC computer or on, in terms of the studies performed on dissociated DRG neurons, a Zeiss Axoscop 200 inverted microscope equipped with an Axopatch 200B/Digidata 1322A using Pclamp 9.0 and Axoscope 9 software.
Test compounds were bath-applied by superfusion to examine for changes in excitability and/or attenuation of ion channels and the effects of compounds on evoked synaptic responses. Stimulating electrodes (concentric or bipolar) were placed within the slices and in accordance with the well known fiber tract pathways of passage for the DH and the hippocampus.

As for `CC(C)=CCC/C(C)=C/CO` [geraniol, 2,6-Octadien-1-ol, 3,7-dimethyl-, (2E)-], the “numbness / negative sensory phenomena, subject-reported” value in test [1] is reported as “improvements seen in subjectively reported symptoms”. In test [2] (topical every other day, over 2 week period), the “feeling in treated foot vs untreated foot” value is “continued to have more feeling than the right foot”. In addition, the “sensation tested with nylon filament on treated foot” value in test [2] (topical, retested after approximately 5 minutes, untreated foot as comparison) is given as “improvements in sensory functioning; also recorded: able to feel the nylon filament; also recorded: could detect feeling with a nylon filament”. The “action potentials during current-voltage steps” value in test [3] (10 mV steps (250 ms) from -110 to -20 mV, in presence of compound) was “inhibition of action potentials”. The “membrane current (current-voltage relation)” value in test [3] (10 mV steps (250 ms) from -110 to -20 mV) is given as “reduction in the membrane current amplitude; also recorded: reduction of membrane currents”; in test [3] (10 mV steps (250 ms) from -110 to -20 mV, listed as Geraniol), “reduction of membrane currents”. Besides, the “action potential following depolarizing current pulse” value in test [3] (depolarizing current pulse of 0.4 nA) was “inhibition of action potential”. In addition, the “net current reduction (current differential between control and tested compound)” value in test [3] (most negative voltage step (-110 mV), FIG. 3, ranking among samples) is listed as “greatest inhibition”.
